Test results from patent publication US20220331301A1, “CYSTIC FIBROSIS TRANSMEMBRANE CONDUCTANCE REGULATOR MODULATORS FOR TREATING AUTOSOMAL RESESSIVE POLYCYSTIC KIDNEY DISEASE” (The Johns Hopkins University, priority 2021, published 2022).

Tested on: Pkhd1^del4/del4 cholangiocytes
Assay: Cyst growth of cholangiocytes on matrigel (3D culture)
Type: cell-based, mice
Details: for cyst growth / cyst area: 10 μM continuous, cysts induced with Forskolin (10 μM)
Method: (§1) Note that the cysts treated with forskolin (for) grew larger. […] Note that the cysts treated with forskolin (for) grew larger. […] FIG. 3C for 1 wk. […] Cysts were induced with Forskolin (10 μM) for 24 hours prior to study. Columns represent means±standard error (SEM). **P<0.01 ****P<0.0001 (for all graphs). Statistical analysis was performed using an unpaired two-tailed Student's t-test;
as §1, with “4C” for “3C”
But cysts do develop from the Pkhd1del4/del4 cholangiocytes. Cyst growth is accelerated by forskolin (for). […] Yanda et al., 2018. The dosage of VX-809 injected was lower than the human pediatric dose, which is 500 mg of Lumacaftor per day; the adult dose is 800 mg/day.
(Methods and cells provided by the Yale O'Brian Center) To create the cholangiocyte cultures PKhd1del/4/del4, Garcia-Gonzalez et al., 2007, animals were crossed with mice transgenic for the Sv40 large T Antigen (strain name SV40 T-antigen JAX strain #002233). Segments of intrahepatic bile ducts were microdissected from livers perfused via the portal vein with molten agarose containing toluidine blue to mark the veins. The liver parenchyma was stripped until the biliary tree was identified and the bile duct units were seeded onto rat type I collagen coated plates. Cells were cultured under non-permissive conditions in the following medium: DMEM/F12 with 5% fetal bovine serum, 10 μL/mL insulin-transferrin selenium, 3.4 μg/mL triiodothyronine, 50,000 U penicillin/streptomycin under humidified conditions at 37° C. in 5% CO2. After one week, the cells were cultured under permissive conditions in the presence of 10 U of interferon-γ at 33° C. in 5% CO2. When confluent, cells were passaged by digesting the collagen slab below the cells (60 min; 37° C.; DMEM/F12 with 2 mg/mL dispase and 1 mg/mL collagenase type 11), then washed twice in PBS and plated onto collagen coated support systems. Clonal cell lines were generated by single cell isolation. Cells were differentiated for 10 days at 37° C. without interferon-γ for experimental use.

## CCOc1ccc2c(-c3cccc(F)c3)nn(CC(=O)N(C)c3ccc4nc(C)oc4c3)c(=O)c2c1 [FDL 169]
Pkhd1del4/del4 cholangiocytes, time not stated
  cyst growth in 3D culture: reduces growth
Monitored for 1 week
  cyst growth / cyst area: reduced cyst growth in the presence of forskolin
Monitored for 48 hrs
  cyst growth / cyst area: reduced cyst growth in the presence of forskolin
